Measurements published in patent US5814600A, “Method and composition for treatment of insulin requiring mammals” (Amylin Pharmaceuticals Inc., priority 1994, dated 1998).
Entries after “also recorded” stand apart in the source; their conditions may differ. Where two headings read alike, the source gives them in different places.

What was measured:
[1] = tested on: streptozotocin-diabetic rats; experiment: Liver glycogen in insulin-treated streptozotocin diabetic rats, daily s.c. amylin replacement; type: in vivo, rat
Experimental: There were 68 male Harlan Sprague Dawley rats (mass 301±3 g) in 8 treatment groups. Animals were housed at 22.7±0.8° C. in a 12:12 hour light:dark cycle (experiments being performed during the light cycle) and fed and watered ad libitum (Diet LM-485, Teklad, Madison, Wis.). The rats were sacrificed for harvesting of livers 4 to 5 hours into the light cycle.
Animals were injected with streptozotocin (Sigma Chemical Company, St Louis, Mo.: Sigma 50130) dissolved in water in a dose of 65 mg/kg into the lateral tail vein. […] Maintaining diabetic rats in this metabolic state optimizes survival. Following one week of established diabetes, animals received once daily s.c. injections of amylin vehicle (water for injection) for 5 days given at the time of the insulin injection.
These animals were treated identically to those in group 1 except that the daily subcutaneous injection contained 3 μg (n=5); 10 μg (n=12); 30 μg (n=5); 100 μg (n=5) or 300 μg (n=5) of rat amylin (Bachem lot# WG485^2/). The bioactivity of the peptide used in these experiments was first verified by bioassay, using inhibition of insulin-stimulated radioglucose incorporation into glycogen in the isolated stripped rat soleus muscle. […] The insulin dose in each of the groups of diabetic animals averaged 1.67 U/animal/day. There were no other observable differences in the required management of the different groups.
These animals were derived from the same stock and housed under the same conditions for the same time as those in groups 1-6, but were given no injections. 24 hours after the fifth daily injection of amylin or water (or an equivalent time after admission to the vivarium in the case of group 7 rats), the non-fasted rats were killed by decapitation and the livers immediately removed and frozen in liquid N2, weighed and stored for subsequent determination of glycogen concentration.
Whole livers were powdered while frozen. Approximately 200 mg of powder was further homogenized in 1.0 mL of 0.6M perchloric acid to denature enzymes. 200 μL of the homogenate was neutralized with 0.5 volumes of 1.0M KHCO3 in either of two acetate buffer solutions, one containing 2.0 mL of 200 mM acetate (pH4.8), the other containing the same but with 18.5 U/mL of amyloglucosidase (EC5 3.2.1.3, from Aspergillus nicer, Sigma A3423, Sigma Chemical Company, St Louis, Mo.) added. Following at least 20 minutes incubation at 23° C., the supernatants were assayed for glucose in an analyzer using D-glucose oxidase immobilized enzyme chemistry (Analyzer model 2300-STAT, YSI, Yellow Springs, Ohio). Purified rabbit liver glycogen (Sigma G8876) used as a standard indicated 98±4% recovery of dissolved glycogen and linearity within the range of observed liver glycogen concentrations (r=0.9994). All reagents were of analytical grade or better.
Statistical comparisons were by Student's t-test routines contained in the SYSTAT system (Systat, Evanston, Ill.). All results are reported as means ± standard error of the mean.

rat soleus muscle = type: cell-based
Experimental: Male Harlan Sprague Dawley rats of approximately 200 g mass were used in order to maintain soleus muscle mass less than 40 mg. The animals were fasted for 4 hours prior to sacrifice by decapitation. The skin was stripped from the lower limb which was then pinned out on cork board. The tendo achilles was cut just above os […]. gastrocnemius reflected out from the posterior aspect of the tibia. M. soleus, a small […], 0.55 mm thick flat muscle on the bone surface of m. gastrocnemius was then stripped clear and the perimysium cleaned off using fine scissors and forceps. M. soleus was then split into equal parts using a blade passed antero-posteriorly through the belly of the muscle to obtain a total of 4 muscle strips from each animal. After dissecting the muscle from the animal, it was kept for a short period in physiological saline. The muscle was not held under tension, as reported in other methodologies since in our hands this had no demonstrable effect on the insulin-sensitivity of radioglucose incorporation into glycogen. Muscles were added to 50 mL Erlenmeyer flasks containing 10 mL of a pregassed Krebs-Ringer bicarbonate buffer containing (mM) NaCl 118.5; KCl 5.94; CaCl2 2.54; MgSO4 1.19; KH2 PO4 1.19; NaHCO3 25; glucose 5.5; and recombinant human insulin (Humulin-R, Eli Lilly, Ind.) and either synthetic rat (Bachem, Torrance, Calif. Lot# ZG485) or synthetic human amylin (Bachem, Torrance, Calif. Lot# ZH144) as detailed below. Methods used to determine the nature and purity of rat and human amylin included quantitative amino acid analysis, gas phase amino acid sequencing, reverse phase HPLC and fast-atom-bombardment mass spectrometry. […] Incorporation of mercury into rat amylin may be a feature of many commercially available batches that have already been used in published studies. Since the peptide was bioactive, its action in muscle was expected to at least qualitatively mimic that of true rat amylin. The mercuric method of cyclization was not used in the synthesis of human amylin, which is found by electrospray ionization mass spectrometry and atomic absorption spectroscopy to be mercury-free. Muscles were assigned to different flasks so that the four muscle pieces from each animal were evenly distributed among the different assay conditions. The incubation media were gassed by gently blowing carbogen (95% O2, 5% CO2) over the surface while it was continuously agitated at 37° C. in an oscillating water bath. pH of gassed media at 37° C. was verified as being between 7.1 and 7.4. After a half-hour preincubation, 0.5 μCi of [U-^14 C]-glucose was added to each flask for a further 60 minutes. Each muscle piece was then rapidly removed, trimmed of tendons, blotted, frozen in liquid N2, weighed and then stored at […] for subsequent determination of ^14 C-glycogen. The incubation medium was also frozen for subsequent analysis. The concentration of human amylin present in the medium at the end of the incubation was determined by radioimmunoassay in surfactant-containing buffer. For both human and rat amylin, the actual mass added to the incubation medium was determined by quantitative amino-acid analysis. Each frozen muscle specimen was placed in a vial with 1 mL 60% potassium hydroxide (wt/vol) and digested at 70° C. for 45 minutes under intermittent vigorous agitation. Dissolved glycogen was precipitated onto the walls of the vial by addition of 3 mL absolute ethanol and overnight cooling at -20° C. After centrifugation for 30 minutes at 2000 x-- g, the supernatant was gently aspirated, the glycogen was again washed with ethanol and centrifuged, the ethanol aspirated and the precipitate dried under vacuum. It was important to evaporate all ethanol to avoid quenching during scintillation counting. The remaining glycogen was redissolved in 1 mL water and 4 mL scintillation fluid and counted for ^14 C. […]

liver glucose output = conditions: rats; Molina et al. 1990, Koopmans et al. 1990; cited from earlier work

- EC50 (rat soleus muscle; 4 h): 6.2 nM
- EC50 (rat soleus muscle; [insulin] 0 nM (nominal), nominal amylin concentrations, read-out: Amylin dose response: EC50, Mean ± log SE (converted)): 12.2 ± 0.94 nM
- EC50 (rat soleus muscle; [insulin] 0.21 nM (nominal), nominal amylin concentrations, read-out: Amylin dose response: EC50, Mean ± log SE (converted)): 10.3 ± 0.48 nM
- EC50 (rat soleus muscle; [insulin] 0.71 nM (nominal), nominal amylin concentrations, read-out: Amylin dose response: EC50, Mean ± log SE (converted)): 8.24 ± 0.24 nM
- EC50 (rat soleus muscle; [insulin] 2.1 nM (nominal), nominal amylin concentrations, read-out: Amylin dose response: EC50, Mean ± log SE (converted)): 10.4 ± 0.16 nM
- EC50 (rat soleus muscle; [insulin] 7.1 nM (nominal), nominal amylin concentrations, read-out: Amylin dose response: EC50, Mean ± log SE (converted)): 8.69 ± 0.13 nM
- EC50 (rat soleus muscle; [insulin] 71 nM (nominal), nominal amylin concentrations, read-out: Amylin dose response: EC50, Mean ± log SE (converted)): 11.93 ± 0.11 nM
Compound: CC(C)C[C@H](NC(=O)[C@H](CC(N)=O)NC(=O)[C@H](CC(N)=O)NC(=O)[C@H](CO)NC(=O)[C@H](CO)NC(=O)[C@H](CCCNC(=N)N)NC(=O)[C@@H](NC(=O)[C@H](CC(C)C)NC(=O)[C@H](Cc1ccccc1)NC(=O)[C@H](CC(N)=O)NC(=O)[C@H](C)NC(=O)[C@H](CC(C)C)NC(=O)[C@H](CCCNC(=N)N)NC(=O)[C@H](CCC(N)=O)NC(=O)[C@@H](NC(=O)[C@H](C)NC(=O)[C@@H]1CSSC[C@H](NC(=O)[C@@H](N)CCCCN)C(=O)N[C@@H](CC(N)=O)C(=O)N[C@@H]([C@@H](C)O)C(=O)N[C@@H](C)C(=O)N[C@@H]([C@@H](C)O)C(=O)N1)[C@@H](C)O)C(C)C)C(=O)NCC(=O)N1CCC[C@H]1C(=O)N[C@H](C(=O)N[C@@H](CC(C)C)C(=O)N1CCC[C@H]1C(=O)N1CCC[C@H]1C(=O)N[C@H](C(=O)N[C@@H](CC(N)=O)C(=O)N[C@H](C(=O)NCC(=O)N[C@@H](CO)C(=O)N[C@@H](CC(N)=O)C(=O)N[C@H](C(=O)N[C@@H](Cc1ccc(O)cc1)C(N)=O)[C@@H](C)O)C(C)C)[C@@H](C)O)C(C)C [rat amylin]
- liver glycogen versus insulin alone ([1]; amylin 3 μg/day plus insulin): did not measurably increase glycogen levels
- liver glycogen restoration towards normal ([1]; amylin 300 μg/day plus insulin): did not measurably restore liver glycogen towards normal
- liver glycogen concentration versus normal animals ([1]; amylin 10, 30 and 100 μg per day plus insulin): not significantly different from that in normal animals
- liver glycogen versus insulin-only therapy ([1]; amylin 10, 30 and 100 μg/day s.c. for 5 days plus insulin): Significant increases over insulin-only therapy; also recorded: dose-dependent increase in liver glycogen concentration above that in rats replaced with insulin alone
- restoration of liver glycogen ([1]; five consecutive daily subcutaneous injections, insulin-treated STZ diabetic rats): dose-dependently restored liver glycogen to normal levels
- Amylin dose response: Maximal response, Mean ± SEM (rat soleus muscle; [insulin] 0 nM (nominal)): 0.85 ± 0.17 μmol/g wet tissue/hr
- Amylin dose response: Maximal response, Mean ± SEM (rat soleus muscle; [insulin] 0.21 nM (nominal)): 1.26 ± 0.18 μmol/g wet tissue/hr
- Amylin dose response: Maximal response, Mean ± SEM (rat soleus muscle; [insulin] 0.71 nM (nominal)): 2.11 ± 0.18 μmol/g wet tissue/hr
- Amylin dose response: Maximal response, Mean ± SEM (rat soleus muscle; [insulin] 2.1 nM (nominal)): 2.94 ± 0.18 μmol/g wet tissue/hr
- Amylin dose response: Maximal response, Mean ± SEM (rat soleus muscle; [insulin] 7.1 nM (nominal)): 3.56 ± 0.19 μmol/g wet tissue/hr
- Amylin dose response: Maximal response, Mean ± SEM (rat soleus muscle; [insulin] 71 nM (nominal)): 4.07 ± 0.18 μmol/g wet tissue/hr
- mode of action on the insulin response in soleus muscle (rat soleus muscle; from insulin/amylin dose response matrix): noncompetitive, functional antagonist to insulin
- effect on insulin-mediated suppression of liver glucose output (liver glucose output): reverses insulin-mediated suppression of liver glucose output
